The values that follow come from patent US7662776B2, “Treatment of tumors using short peptides from human chorionic gonadotropin (HCG)” (Biotempt B.V., priority 2005, dated 2010).

What all share (assay type): in vivo, Mice (C57B16)
Series [1] in a line: Toxicity during escalating dose experiment: animal weight, blood markers, leukocyte count (Example III). The protocol: FIG. 5. During the escalating dose experiment toxicity of LQGV (SEQ ID NO:1) was evaluated by evaluation of blood markers for kidney and liver function and leukocyte count.
FIG. 6. During the escalating dose experiment toxicity of LQGV (SEQ ID NO:1) was evaluated by monitoring of animal weight.
Assessment of side-effects. Side-effects are monitored on daily basis. a) Weight of the animals is monitored daily. b) Behavior of the animals is observed. c) Animals are checked for possible side effects such as diarrhea.
During the experiment toxicity of the administered peptides was evaluated by monitoring of animal weight (FIG. 6) and by evaluation of blood markers for kidney and liver function and leukocyte count (FIG. 5). […] It is important to compare not only between the groups but also within the groups between individual mice.

Series [2] has as its system Lewis Lung Carcinoma (LLC). The series can be described thus: Tumor response in mice bearing LLC tumor during and after treatment with small peptides (Example II). The following applies: for tumor growth curves compared with thalidomide: FIG. 1; for tumor growth curves compared with thalidomide / effect on tumor growth: result in words; for tumor volume day 21: average tumor volume on day 21, s.c. LLC, i.p. injection Mon/Wed/Fri; for tumor volume day 21 / mice showing a tumor response: 6 mice per group; for tumor control: mice with complete tumor control for 56 days / mice in group; for Response rate CR: number of mice with complete response; for Response rate CR / Response rate NC / Response rate PR / Response rate PD: of 6; for Response rate NC: number of mice with no change (stable disease); for Response rate PR: number of mice with partial remission; for Response rate PD: number of mice with progressive disease; for mice showing a tumor response: response = maximally a growth of 25% within seven days; for effect on tumor growth: i.p. peptide, LLC tumor. The protocol:
Animals and tumor model: Mice (C57B16) are transplanted with the syngeneic Lewis Lung Carcinoma (LLC) subcutaneously.
Treatment modalities: mice are treated with small peptides or control substances beginning on the day of transplantation by i.p. injection. Mice are injected on Monday, Wednesday and Friday, until end of experiment. Experiment ends are based on: tumor size >20 mm, suffering of the animal, weight loss over 20%, ulcerations etc. Otherwise the experiment is terminated eight weeks after start.
Tumor diameter is measured in two directions by caliper measurements and tumor volume (V) is calculated using the formula V=0.4(A^2×B) (where B represents the largest diameter and A the diameter perpendicular to B). The classification of tumor response is: progressive disease (PD), increase of tumor volume (>50%) within seven days (between day 3 and day 10 after begin of treatment); stable disease, tumor volume equal to volume at day 3 in a range of −25% and +25%; partial remission (R), tumor volume −25% to −90%, and complete response CR, (no) measurable tumor at 56 days after start of treatment.
Tumor growth evaluation is terminated when a tumor diameter of 20 mm is reached.
Mice were treated with i.p. injections of peptides 24 hours after implantation of LLC tumor. In all mice receiving PBS tumor developed which reached on average a tumor volume of 1600 mm^3 in 21 days. Approximately tumor diameter was at that time point 16 mm. Thalidomide was used as a positive control.

Series [3] concerns Lewis Lung Carcinoma (LLC). The series can be described thus: Escalating doses of peptide LQGV in Lewis Lung Carcinoma-bearing mice (Example III). The following applies: for PD: number of mice with progressive disease (outgrowth); for TR: number of mice with tumor response (growth delay till day 20); for RR: tumor response rate. The procedure: FIG. 3 Tumor volume of Lewis Lung Carcinoma-bearing C57B16 mice treated with escalating doses of peptide LQGV (SEQ ID NO:1). Doses of 1.7, 5, 17, 50 and 170 mg/kg were tested.
Animals and tumor model. Mice (C57B16) are transplanted with the syngeneic Lewis Lung Carcinoma (LLC) subcutaneously. Treatment is stared 24 hours after implantation. The number of animals is eight per group to increase the power of this study. As we are starting the treatment when no tumor is palpable the change of error is larger compared to a study with established tumors. Treatment modalities: mice are treated with small peptides or sham control beginning one day after transplantation by i.p. injection. Mice will be injected on Monday, Wednesday and Friday, until end of experiment. Experiment ends based on criteria as tumor size >20 mm, suffering of the animal, weight loss over 20%, ulcerations. Otherwise the experiment will be terminated eight weeks after start.
Tumor diameter is measured in two directions by caliper measurements and tumor volume (V) is calculated using the formula V=0.4(A2×B) (where B represents the largest diameter and A the diameter perpendicular to B). The classification of tumor response is: progressive disease (PD), increase of tumor volume (>25%) within seven days; no change (NC), tumor volume equal to volume at start of treatment in a range of −25% and +25%; partial remission (PR), decrease of tumor volume between −25% and −90%; complete remission (CR), tumor volume less than 10% of initial volume. Tumor growth evaluation is terminated when a tumor diameter of 20 mm is reached.
Tumor volumes were analyzed using non-parametric testing for multiple groups (Kruskal Wallis) and pair wise comparison of the different groups using Mann Whitney.
Tumor response was evaluated slightly differently from proposed. As we start shortly after tumor induction, shrinkage of the tumor compared to before treatment cannot be made. […] So during the experimental time-frame outgrowth (progressive disease, PD) and tumor response (TR, growth delay till day 20) was evaluated. In Table 3 response rates are depicted.

Setting [4] is: escalating dose experiment, FIG. 5.

“Also recorded” adds a separate entry of the source. Peptide text beside a SMILES is read from it.

With `CC(C)C[C@H](N)C(=O)N[C@@H](CCC(N)=O)C(=O)NCC(=O)N[C@H](C(=O)O)C(C)C` [LQGV, Leu Gln Gly Val] (H-LQGV-OH), in series [1] (at all doses (1.7-170 mg/kg), FIG. 6), the “effect on animal weight” value is reported as “no effect on animal weight”. Further, in series [1] (setting [4]), the “effect on leukocyte number” value is on record as “no effect on leukocyte number”; the “effect on liver and kidney parameters (blood markers)” value is “did not affect the liver and kidney parameters”. Besides, in series [2], the “tumor growth curves compared with thalidomide” value is reported as “comparable to Thalidomide; also recorded: comparable tumor growth curves”, the “tumor volume day 21” value was found to be 270 mm^3, the tumor control was 2/6 and the “Response rate CR” value is 2. Further, in series [2], the “Response rate NC” value came out at 2, the “Response rate PR” value amounted to 1, the “Response rate PD” value amounted to 1 and the “mice showing a tumor response” value is recorded as “five out of six”. Moreover, in series [2], the “effect on tumor growth” value is given as “strong tumor growth delay”. In series [3] (1.7 mg/kg i.p.), this compound gave a PD of 9, a TR of 2 and an RR of 18%. In series [3] (5 mg/kg i.p.), this compound registered a PD of 4, a TR of 7 and an RR of 64%. Further, in series [3] (17 mg/kg i.p.), the PD is listed as 2, the TR came to 9 and the RR is recorded as 82%. Besides, in series [3] (50 mg/kg i.p.), the PD came to 4, the TR worked out at 7 and the RR was 64%. Further, in series [3] (50 mg/kg, result in words), the “effect on tumor growth” value is on record as “strongly inhibited tumor growth”. Also, in series [3] (170 mg/kg i.p.), the PD is recorded as 4, the TR turned out to be 7 and the RR came to 64%. Moreover, the “effect on tumor growth” value in series [3] (dose of 5 mg/kg, result in words) was “a delay in tumor growth was observed”. Moreover, the “delay in tumor growth relative to 5 mg/kg” value in series [3] (higher dosages (above 5 mg/kg), result in words) is reported as “more pronounced”.
Turning to `O=C1CCC(N2C(=O)c3ccccc3C2=O)C(=O)N1` (stereo not drawn) [Thalidomide, reference compound], in series [2], the “tumor volume day 21” value was determined as 340 mm^3, the tumor control is given as 3/6, the “Response rate CR” value was 2 and the “Response rate NC” value is given as 3. Moreover, in series [2], the “Response rate PR” value is 1 and the “mice showing a tumor response” value was “all animals”. Besides, the “effect on tumor growth” value in series [3] (positive control group, result in words) is listed as “only some tumor growth delay”.
For “Ala Gln Gly Val (AQGV; Chemically synthesized antitumor peptide AQGV) [4-mer peptide, derivative of LQGV]”, in series [2], the “tumor volume day 21” value is on record as 1030 mm^3, the tumor control is listed as 2/6, the “Response rate NC” value is 1 and the “Response rate PR” value is 2. Moreover, in series [2], the “Response rate PD” value is recorded as 3 and the “effect on tumor growth” value is reported as “tumor growth delay”.
Turning to LAG, in series [2], the “tumor volume day 21” value was 1550 mm^3, the tumor control was 2/6, the “Response rate CR” value was 1 and the “Response rate PR” value was 1. For the same compound, the “Response rate PD” value in series [2] turned out to be 4.
In the case of LQG, in series [2], the “tumor growth curves compared with thalidomide” value is listed as “comparable to Thalidomide; also recorded: comparable tumor growth curves”, the “tumor volume day 21” value came to 620 mm^3, the tumor control is given as 3/6 and the “Response rate CR” value worked out at 2. Moreover, in series [2], the “Response rate NC” value is recorded as 4, the “mice showing a tumor response” value is given as “all animals” and the “effect on tumor growth” value is “tumor growth delay”.
Consider “Leu Ala Gly Val (LAGV; Chemically synthesized antitumor peptide LAGV) [4-mer peptide, derivative of LQGV]”, for which, in series [2], the “tumor volume day 21” value is 1600 mm^3, the tumor control is 2/6, the “Response rate CR” value came out at 1 and the “Response rate NC” value is given as 1. In addition, in series [2], the “Response rate PR” value is listed as 1 and the “Response rate PD” value was 3.
Take “VLPALP (Chemically synthesized antitumor peptide VLPALP) [6-mer peptide]”: in series [2], the “tumor volume day 21” value was found to be 880 mm^3, the tumor control was 3/6, the “Response rate CR” value was found to be 2 and the “Response rate NC” value was 2. In series [2], the “Response rate PR” value amounted to 1, the “Response rate PD” value turned out to be 1, the “mice showing a tumor response” value was “five out of six” and the “effect on tumor growth” value was “tumor growth delay”.
